Experimental data taken from US20060270655A1, “Combination therapy for treating obesity or maintaining weight loss” (priority 2005, published 2006).

Assay: Food intake (12 hour spontaneous food intake, rats on high fat diet)
Assay type: in vivo
Conditions: male Sprague-Dawley rats
Experimental: The following functional assay was used to determine the effect of an intestinal-acting MTPi, a CB-1 antagonist, and the combination of an intestinal-acting MTPi and a CB-1 antagonist on food intake. The doses of the CB-1 antagonist used in the experiments were 10 mg/kg and 30 mg/kg. The doses of the intestinal-acting MTPi used in the experiments were 3 mg/kg and 10 mg/kg. The different dosages for each active were tested alone and in various combinations with each other as compared to a control (vehicle).
Male Sprague-Dawley rats (275-325 grams) were placed on a high fat diet (Research Diets, 45% kcal from fat). Animals were acclimated to an automated food intake assessment system overnight. Food weight data was collected by computer acquisition. Immediately prior to the start of the dark cycle on the first day, animals were given a PO (i.e., orally by mouth) dose of a gMTP inhibitor (Dirlotapide) or vehicle (self-emulsifying drug delivery system (SEDDS) formulation containing 20% Miglyol 812, 30% Triacetin, 20% Tween 80, and 30% Capmul MCM). On the second day, rats (n=5-10/group) were given a PO dose of a CB-1 antagonist (Compound A) or 0.5% methylcellulose 20 minutes prior to a second dose of Dirlotapide or vehicle. Food Intake was monitored until the following day. Data for each treatment group was compared by ANOVA (analysis of variance).

| Structure (SMILES) | 12 hour Spontaneous Food Intake (10 mg/kg Compound A PO alone (plus SEDDS vehicle)) [grams] | 12 hour Spontaneous Food Intake (30 mg/kg Compound A PO alone (plus SEDDS vehicle)) [grams] | 12 hour Spontaneous Food Intake (3 mg/kg Dirlotapide PO alone (two daily doses, plus 0.5% methylcellulose)) [grams] | 12 hour Spontaneous Food Intake (10 mg/kg Dirlotapide PO alone (two daily doses, plus 0.5% methylcellulose)) [grams] |
| --- | --- | --- | --- | --- |
| CCNC1(C(N)=O)CCN(c2ncnc3c2nc(-c2ccccc2Cl)n3-c2ccc(Cl)cc2)CC1 [Compound A, 1-[9-(4-chloro-phenyl)-8-(2-chloro-phenyl)-9H-purin-6-yl]4-ethylamino-piperidine-4-carboxylic acid amide] | 16.3 ± 1.0 | 12.6 ± 1.4 |  |  |
| CN(Cc1ccccc1)C(=O)[C@@H](NC(=O)c1cc2cc(NC(=O)c3ccccc3-c3ccc(C(F)(F)F)cc3)ccc2n1C)c1ccccc1 [Dirlotapide, (S)-N-{2-[benzyl(methyl)amino]-2-oxo-1-phenylethyl}-1-methyl-5-[4′-(trifluoromethyl)[1,1′-biphenyl]-2-carboxamido]-1H-indole-2 carboxamide] |  |  | 14.6 ± 0.8 | 11.3 ± 0.7 |
